According to US12371428B2 (Exelixis, Inc., priority 2019, dated 2025):

What was measured:
[1] = target: Human KDR (residues 790-1356) (Homo sapiens (Human), UniProt P35968); assay: Human KDR kinase assay, HTRF KinEase (Example B-2); type: biochemical; details: protocol of Example B-2 (other compounds)
Procedure, shortened: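 Human KDR residues 790-1356 (0.1 ng/well) in buffer with 5 mM MgCl2, 1 mM MnCl2, 1 mM DTT, biotinylated peptide substrate, ATP at Km (4.0 μM), 3% DMSO, 10 compound concentrations; 40 min, room temperature. EDTA stop, streptavidin-XL665/Eu-TK antibody HTRF read 665/620 nm; 4-parameter IC50.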

[2] = target: Human MER (residues 528-999) (Homo sapiens (Human), UniProt Q12866); assay: Human Mer kinase assay, HTRF KinEase (Example C-2); type: biochemical; details: protocol of Example C-2 (other compounds)
Procedure, shortened: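 IC50 values from 10 concentrations via 4-parameter logistic fit of […], with DMSO as 100% and 1 μM reference compound as 0% activity. Reaction: MER kinase domain 528-999, 1 ng/well, 40 μM ATP (Km), biotin peptide, 5 mM MgCl2, 1 mM DTT, 3% DMSO, room temperature 60 min; HTRF streptavidin-XL665/Eu-antibody detection.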

[3] = target: Human MET (residues 956-1390) (Homo sapiens (Human), UniProt P08581); assay: Human Met kinase assay, HTRF KinEase (Example D-2); type: biochemical; details: protocol of Example D-2 (other compounds); read-out: c-Met IC50
Procedure, shortened: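 IC50 values come from a 4-parameter logistic fit of the […] fluorescence ratio, set between DMSO (100%) and reference compound at 1 μM (0%). Reactions held MET 956-1390 at 0.1 ng/well, ATP at Km, biotinylated peptide, 5 mM MgCl2, 1 mM MnCl2, 1 mM DTT and 3% DMSO, and ran 40 min at room temperature before streptavidin-XL665/Eu-antibody detection.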

[4] = target: Met (phospho-Met, HGF-stimulated PC-3 prostate cancer cells) (Homo sapiens (Human), UniProt P08581); assay: Met autophosphorylation ELISA in PC-3 cells (Example F); type: cell-based; details: cellular activity; Met autophosphorylation ELISA in PC-3 cells; read-out: c-Met IC50
Procedure, shortened: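 IC50 values derive from a 4-parameter logistic fit of phospho-Met (panTyr) sandwich ELISA signals in PC-3 lysates, scaled between DMSO and reference-inhibitor wells. Cells, starved 3 h in serum-free medium, had 1 h compound exposure (8 doses, 0.3% DMSO) before 10 min stimulation with 100 ng/mL HGF.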

Chain of Human KDR (residues 790-1356) (P35968 790-1356): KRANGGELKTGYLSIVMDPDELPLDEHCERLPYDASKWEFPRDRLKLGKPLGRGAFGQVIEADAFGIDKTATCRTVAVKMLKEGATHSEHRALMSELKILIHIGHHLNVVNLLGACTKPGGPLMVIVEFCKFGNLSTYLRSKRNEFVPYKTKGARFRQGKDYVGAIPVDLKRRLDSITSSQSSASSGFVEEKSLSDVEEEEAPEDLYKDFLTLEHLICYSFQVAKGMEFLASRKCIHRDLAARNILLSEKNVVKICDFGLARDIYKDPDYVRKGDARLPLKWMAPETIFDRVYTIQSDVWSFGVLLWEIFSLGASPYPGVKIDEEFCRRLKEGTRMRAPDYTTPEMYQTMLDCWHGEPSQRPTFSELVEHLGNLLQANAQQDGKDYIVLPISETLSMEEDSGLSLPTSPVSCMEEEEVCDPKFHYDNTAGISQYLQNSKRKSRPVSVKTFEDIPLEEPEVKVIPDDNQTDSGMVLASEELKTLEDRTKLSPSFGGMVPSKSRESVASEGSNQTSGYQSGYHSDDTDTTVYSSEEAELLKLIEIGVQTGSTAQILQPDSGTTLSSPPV
Chain of Human MER (residues 528-999) (Q12866 528-999): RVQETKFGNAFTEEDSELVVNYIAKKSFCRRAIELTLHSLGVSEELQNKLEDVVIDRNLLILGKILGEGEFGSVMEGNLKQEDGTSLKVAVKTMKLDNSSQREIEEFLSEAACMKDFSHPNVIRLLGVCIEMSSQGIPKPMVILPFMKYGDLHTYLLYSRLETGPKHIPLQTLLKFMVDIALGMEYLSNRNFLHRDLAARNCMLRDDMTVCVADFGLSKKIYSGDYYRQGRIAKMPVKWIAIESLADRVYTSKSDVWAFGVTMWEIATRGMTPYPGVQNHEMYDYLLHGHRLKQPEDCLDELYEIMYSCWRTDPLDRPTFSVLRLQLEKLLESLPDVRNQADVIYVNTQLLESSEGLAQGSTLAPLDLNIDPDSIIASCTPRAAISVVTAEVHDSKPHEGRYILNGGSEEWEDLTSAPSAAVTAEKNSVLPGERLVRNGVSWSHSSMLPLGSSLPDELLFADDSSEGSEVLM
Chain of Met (phospho-Met, HGF-stimulated PC-3 prostate cancer cells) (P08581 25-1390): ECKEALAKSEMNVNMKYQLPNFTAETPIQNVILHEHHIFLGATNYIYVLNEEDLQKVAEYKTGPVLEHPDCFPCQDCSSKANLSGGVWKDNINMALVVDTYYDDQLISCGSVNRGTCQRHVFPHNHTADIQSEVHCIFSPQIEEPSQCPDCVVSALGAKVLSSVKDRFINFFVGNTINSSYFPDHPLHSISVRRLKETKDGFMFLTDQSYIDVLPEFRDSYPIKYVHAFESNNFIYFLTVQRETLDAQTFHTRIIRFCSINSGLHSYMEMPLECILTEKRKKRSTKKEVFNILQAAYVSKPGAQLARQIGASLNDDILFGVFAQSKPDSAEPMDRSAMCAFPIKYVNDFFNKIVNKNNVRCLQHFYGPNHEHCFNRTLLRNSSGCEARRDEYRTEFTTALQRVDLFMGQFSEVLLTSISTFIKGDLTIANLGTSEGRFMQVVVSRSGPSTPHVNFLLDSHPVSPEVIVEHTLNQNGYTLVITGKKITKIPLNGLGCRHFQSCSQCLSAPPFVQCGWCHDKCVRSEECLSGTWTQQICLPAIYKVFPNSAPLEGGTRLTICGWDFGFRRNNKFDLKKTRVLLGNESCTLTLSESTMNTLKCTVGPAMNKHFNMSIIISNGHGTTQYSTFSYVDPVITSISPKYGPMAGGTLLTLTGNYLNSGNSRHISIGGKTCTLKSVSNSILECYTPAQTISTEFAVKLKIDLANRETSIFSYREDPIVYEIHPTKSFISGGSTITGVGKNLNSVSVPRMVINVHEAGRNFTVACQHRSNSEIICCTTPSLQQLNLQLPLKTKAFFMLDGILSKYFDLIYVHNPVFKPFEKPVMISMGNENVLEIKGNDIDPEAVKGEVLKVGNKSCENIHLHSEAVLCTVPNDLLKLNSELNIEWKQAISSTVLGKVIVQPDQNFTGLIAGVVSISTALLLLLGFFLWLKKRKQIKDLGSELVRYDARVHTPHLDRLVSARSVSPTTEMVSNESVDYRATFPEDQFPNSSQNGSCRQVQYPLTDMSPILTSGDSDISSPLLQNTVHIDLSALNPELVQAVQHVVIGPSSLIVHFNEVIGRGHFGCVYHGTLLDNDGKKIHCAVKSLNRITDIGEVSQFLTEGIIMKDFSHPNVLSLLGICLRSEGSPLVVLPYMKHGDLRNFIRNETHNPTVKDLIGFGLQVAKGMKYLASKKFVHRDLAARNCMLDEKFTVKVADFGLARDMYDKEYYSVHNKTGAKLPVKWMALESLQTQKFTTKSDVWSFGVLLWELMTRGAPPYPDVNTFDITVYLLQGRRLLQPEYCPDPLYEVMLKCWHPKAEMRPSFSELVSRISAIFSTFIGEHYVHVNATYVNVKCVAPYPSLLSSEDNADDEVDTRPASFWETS
Chain of Human MET (residues 956-1390) (P08581 956-1390): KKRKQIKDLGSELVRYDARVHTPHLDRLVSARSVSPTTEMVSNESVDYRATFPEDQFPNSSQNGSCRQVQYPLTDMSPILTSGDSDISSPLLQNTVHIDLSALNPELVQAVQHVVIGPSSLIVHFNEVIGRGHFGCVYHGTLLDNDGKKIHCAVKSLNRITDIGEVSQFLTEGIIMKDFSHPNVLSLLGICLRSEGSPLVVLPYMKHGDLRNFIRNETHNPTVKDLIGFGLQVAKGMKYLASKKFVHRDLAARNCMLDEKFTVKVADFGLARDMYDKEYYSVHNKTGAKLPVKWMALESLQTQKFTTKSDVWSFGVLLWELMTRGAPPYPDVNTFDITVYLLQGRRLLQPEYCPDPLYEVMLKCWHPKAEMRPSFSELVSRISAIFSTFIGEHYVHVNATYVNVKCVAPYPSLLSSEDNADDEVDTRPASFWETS

Structure (SMILES)	IC50 [1] [µM]	IC50 [2] [µM]	IC50 [3] [µM]	IC50 [4] [µM]
Cc1cc(F)ccc1-c1c(C)ncc(C(=O)Nc2ccc(Oc3ccnc4cc(C)c(F)nc34)c(F)c2)c1O [Compound 427, N-[3-fluoro-4-[(6-fluoro-7-methyl-1,5-naphthyridin-4-yl)oxy]phenyl]-5-(4-fluoro-2-methylphenyl)-4-hydroxy-6-methylpyridine-3-carboxamide]	> 0.3	< 0.1	0.1 to 0.3	< 0.1
COc1cc2nccc(Oc3ccc(NC(=O)c4nc(C)c(C)n(-c5ccc(F)cc5)c4=O)cc3F)c2nc1OC [Compound 95, N-[4-[(6,7-Dimethoxy-1,5-naphthyridin-4-yl)oxy]-3-fluorophenyl]-4-(4-fluorophenyl)-5,6-dimethyl-3-oxopyrazine-2-carboxamide]	0.1 to 0.3	< 0.1	< 0.1	< 0.1
COCCOc1cc2nccc(Oc3ccc(NC(=O)c4c(C)nc(C)c(-c5ccc(F)cc5)c4O)cc3F)c2nc1OC [Compound 432, N-[3-fluoro-4-[[6-methoxy-7-(2-methoxyethoxy)-1,5-naphthyridin-4-yl]oxy]phenyl]-5-(4-fluorophenyl)-4-hydroxy-2,6-dimethylpyridine-3-carboxamide]	< 0.1	< 0.1	< 0.1	< 0.1
COc1cc2nccc(Oc3ccc(NC(=O)c4cn(C)c(C)c(-c5ccc(F)cc5)c4=O)cc3F)c2nc1OC [Compound 58, N-[4-[(6,7-Dimethoxy-1,5-naphthyridin-4-yl)oxy]-3-fluorophenyl]-5-(4-fluorophenyl)-1,6-dimethyl-4-oxopyridine-3-carboxamide]	< 0.1	< 0.1	< 0.1	< 0.1
COCCOc1nc2c(Oc3ccc(NC(=O)c4cnc(C)c(-c5ccc(F)cc5)c4O)cc3F)ccnc2cc1OC [Compound 68, N-[3-Fluoro-4-[[7-methoxy-6-(2-methoxyethoxy)-1,5-naphthyridin-4-yl]oxy]phenyl]-5-(4-fluorophenyl)-4-hydroxy-6-methylpyridine-3-carboxamide]	< 0.1	< 0.1	< 0.1	< 0.1
COc1cc2nccc(Oc3ccc(NC(=O)c4cnc(C)c(-c5ccc(F)cc5C)c4O)cc3F)c2nc1OC(C)C [Compound 416, N-[3-fluoro-4-[(7-methoxy-6-propan-2-yloxy-1,5-naphthyridin-4-yl)oxy]phenyl]-5-(4-fluoro-2-methylphenyl)-4-hydroxy-6-methylpyridine-3-carboxamide]	> 0.3	< 0.1	< 0.1	< 0.1
COc1cc2nccc(Oc3ccc(NC(=O)c4cn(C(C)(C)C)cc(-c5ccc(F)cc5)c4=O)cc3F)c2nc1OC [Compound 48, 1-tert-Butyl-N-[4-[(6,7-dimethoxy-1,5-naphthyridin-4-yl)oxy]-3-fluorophenyl]-5-(4-fluorophenyl)-4-oxopyridine-3-carboxamide]	> 0.3	< 0.1	< 0.1	< 0.1
COc1cnc2c(Oc3ccc(NC(=O)c4c(C)nc(C)c(-c5ccc(F)cc5)c4O)cc3F)ccnc2c1 [Compound 66, N-[3-Fluoro-4-[(7-methoxy-1,5-naphthyridin-4-yl)oxy]phenyl]-5-(4-fluorophenyl)-4-hydroxy-2,6-dimethylpyridine-3-carboxamide]	< 0.1	< 0.1	< 0.1	< 0.1
COc1ccc2nccc(Oc3ccc(NC(=O)c4c(C)nc(C)c(-c5ccc(F)cc5C)c4O)cc3F)c2n1 [Compound 70, N-[3-Fluoro-4-[(6-methoxy-1,5-naphthyridin-4-yl)oxy]phenyl]-5-(4-fluoro-2-methylphenyl)-4-hydroxy-2,6-dimethylpyridine-3-carboxamide]	0.1 to 0.3	< 0.1	< 0.1	< 0.1
COc1cc2nccc(Oc3ccc(NC(=O)c4c5n(cc(-c6ccc(F)cc6)c4=O)CCC5)cc3)c2nc1OC [Compound 407, N-[4-[(6,7-dimethoxy-1,5-naphthyridin-4-yl)oxy]phenyl]-6-(4-fluorophenyl)-7-oxo-2,3-dihydro-1H-indolizine-8-carboxamide]	0.1 to 0.3	< 0.1	< 0.1	< 0.1
COc1cc2nccc(Oc3ccc(NC(=O)c4cn(C)c(CO)c(-c5ccc(F)cc5)c4=O)cc3F)c2nc1OC [Compound 72, N-[4-[(6,7-Dimethoxy-1,5-naphthyridin-4-yl)oxy]-3-fluorophenyl]-5-(4-fluorophenyl)-6-(hydroxymethyl)-1-methyl-4-oxopyridine-3-carboxamide]	0.1 to 0.3	< 0.1	< 0.1	< 0.1
COc1nc2c(Oc3ccc(NC(=O)c4c(C)nc(C)c(-c5ccc(F)cc5)c4O)cc3F)ccnc2cc1O [Compound 431, N-[3-fluoro-4-[(7-hydroxy-6-methoxy-1,5-naphthyridin-4-yl)oxy]phenyl]-5-(4-fluorophenyl)-4-hydroxy-2,6-dimethylpyridine-3-carboxamide]	< 0.1	< 0.1	< 0.1	< 0.1
Cc1cc(F)ccc1-c1c(C)n(C)cc(C(=O)Nc2ccc(Oc3ccnc4cc(C)c(F)nc34)c(F)c2)c1=O [Compound 429, N-[3-fluoro-4-[(6-fluoro-7-methyl-1,5-naphthyridin-4-yl)oxy]phenyl]-5-(4-fluoro-2-methylphenyl)-1,6-dimethyl-4-oxopyridine-3-carboxamide]	> 0.3	< 0.1	< 0.1	< 0.1

Results, then the compound that gave them:

IC50 [1] [µM]	IC50 [2] [µM]	IC50 [3] [µM]	IC50 [4] [µM]	Structure (SMILES)
< 0.1	< 0.1	< 0.1	< 0.1	C=Cc1cc2nccc(Oc3ccc(NC(=O)c4cnc(C)c(-c5ccc(F)cc5)c4O)cc3F)c2nc1OC [Compound 422, N-[4-[(7-ethenyl-6-methoxy-1,5-naphthyridin-4-yl)oxy]-3-fluorophenyl]-5-(4-fluorophenyl)-4-hydroxy-6-methylpyridine-3-carboxamide]
> 0.3	< 0.1	0.1 to 0.3	< 0.1	COc1cc2nccc(Oc3ccc(NC(=O)c4cn(C5CC5)c(C)c(-c5ccc(F)cc5C)c4=O)cc3F)c2nc1OC [Compound 439, 1-cyclopropyl-N-[4-[(6,7-dimethoxy-1,5-naphthyridin-4-yl)oxy]-3-fluorophenyl]-5-(4-fluoro-2-methylphenyl)-6-methyl-4-oxopyridine-3-carboxamide]
0.1 to 0.3	< 0.1	< 0.1	< 0.1	COc1cc2nccc(Oc3ccc(NC(=O)c4nn(C)c(C)c(-c5ccc(F)cc5)c4=O)cc3)c2nc1OC [Compound 91, N-[4-[(6,7-Dimethoxy-1,5-naphthyridin-4-yl)oxy]phenyl]-5-(4-fluorophenyl)-1,6-dimethyl-4-oxopyridazine-3-carboxamide]
< 0.1	< 0.1	< 0.1	< 0.1	COc1cc2nccc(Oc3ccc(NC(=O)c4n[nH]c(C)c(-c5ccc(F)cc5C)c4=O)cc3F)c2nc1OC [Compound 90, N-[4-[(6,7-Dimethoxy-1,5-naphthyridin-4-yl)oxy]-3-fluorophenyl]-5-(4-fluoro-2-methylphenyl)-6-methyl-4-oxo-1H-pyridazine-3-carboxamide]
> 0.3	< 0.1	< 0.1	< 0.1	COc1cc2nccc(Oc3ncc(NC(=O)c4cn(-c5ccn(C)n5)cc(-c5ccc(F)cc5)c4=O)cc3F)c2cc1OC [Compound 402, N-[6-(6,7-dimethoxyquinolin-4-yl)oxy-5-fluoropyridin-3-yl]-5-(4-fluorophenyl)-1-(1-methylpyrazol-3-yl)-4-oxopyridine-3-carboxamide]
< 0.1	< 0.1	< 0.1	< 0.1	COc1ccc2nccc(Oc3ccc(NC(=O)c4n[nH]c(C)c(-c5ccc(F)cc5)c4=O)cc3F)c2n1 [Compound 89, N-[3-Fluoro-4-[(6-methoxy-1,5-naphthyridin-4-yl)oxy]phenyl]-5-(4-fluorophenyl)-6-methyl-4-oxo-1H-pyridazine-3-carboxamide]
< 0.1	< 0.1	< 0.1	< 0.1	COc1cc2nccc(Oc3ccc(NC(=O)c4cnc(C)c(-c5ccc(F)cc5)c4O)cc3F)c2nc1OCCCN1CCOCC1 [Compound 424, N-[3-fluoro-4-[[7-methoxy-6-(3-morpholin-4-ylpropoxy)-1,5-naphthyridin-4-yl]oxy]phenyl]-5-(4-fluorophenyl)-4-hydroxy-6-methylpyridine-3-carboxamide]
